In patent US8883841B2, “Oncogenic ras-specific cytotoxic compound and methods of use thereof” (The Board of Regents of the University of Texas System, priority 2005, dated 2014):
Entries after “also recorded” stand apart in the source; their conditions may differ. Like-named read-outs stand apart in the source and are kept apart here.

How the values were obtained:
K-562 = assay: NCI in-vitro testing, K-562 (Leukemia)
U251 = assay: NCI in-vitro testing, U251 (CNS Cancer)
A549 cells = assay: Cell viability, A549 lung cancer cells; format: cell-based, human
Hct116 = assay: Cell viability, Hct116 colon cancer cells; format: cell-based, human
AsPC-1 = assay: Cell viability, AsPC-1 pancreatic cancer cells; format: cell-based, human
CAKI-1 = assay: NCI in-vitro testing, CAKI-1 (Renal Cancer); conditions: for Percent Growth: CAK1-1
EKVX = assay: NCI in-vitro testing, EKVX (Non-Small Cell Lung Cancer)
Ovcar3 = assay: Cell viability, Ovcar3 ovary cancer cells; format: cell-based
H1395 = assay: Cell viability, H1395 lung cancer cells; format: cell-based, human
CT116P53 = assay: Cell viability, CT116P53 colon cancer cells; format: cell-based, human
H2009 = assay: Cell viability, H2009 lung cancer cells; format: cell-based, human
H1933 = assay: Cell viability, H1933 lung cancer cells; format: cell-based, human
H1299 cells = assay: Cell viability, H1299 lung cancer cells; format: cell-based, human
A549CK8 = assay: Cell viability, A549CK8 lung cancer cells; format: cell-based, human
NCI-H522 = assay: NCI in-vitro testing, NCI-H522 (Non-Small Cell Lung Cancer)
Heb44 = assay: Cell viability, Heb44 kidney cells; format: cell-based
DLD1 = assay: Cell viability, DLD1 colon cancer cells; format: cell-based, human
Heb46 = assay: Cell viability, Heb46 kidney cells; format: cell-based
H226B cells = assay: Cell viability, H226B lung cancer cells; format: cell-based, human; conditions: for IC50 (−LogM): H226B, Lung
miapac = assay: Cell viability, miapac pancreatic cancer cells; format: cell-based, human
H2122 = assay: Cell viability, H2122 lung cancer cells; format: cell-based, human
SK-MEL-2 = assay: NCI in-vitro testing, SK-MEL-2 (Melanoma)
Capanc-1 = assay: Cell viability, Capanc-1 pancreatic cancer cells; format: cell-based, human
LOX IMVI = assay: NCI in-vitro testing, LOX IMVI (Melanoma)
OVCAR-4 = assay: NCI in-vitro testing, OVCAR-4 (Ovarian Cancer)
HKE3 = assay: Cell viability, HKE3 colon cancer cells; format: cell-based, human; conditions: for IC50: Homo sapiens; for IC50 (−LogM): HKE3, Colon
H23 = assay: Cell viability, H23 lung cancer cells; format: cell-based, human; conditions: H23, Lung
H322 cells = assay: Cell viability, H322 lung cancer cells; format: cell-based, human
SKOV3 = assay: Cell viability, SKOV3 ovary cancer cells; format: cell-based
[1] = Homo sapiens, read-out: IC50 (−LogM) (converted)

O=Cc1cn(Cc2cccc(Cl)c2)c2ccccc12 [Oncrasin K027, 1-(3-chlorobenzyl)-1H-indole-3-carbaldehyde]
GI50 (K-562; Homo sapiens, K562): 0.0192 µM | CC50 (K-562; Homo sapiens, K562, read-out: LC50): 54.5 µM | TGI (K-562; K-562): 1.26E−5 Molar | Percent Growth (K-562; K-562, Log10 Concentration −4.0 Molar): −71% | Percent Growth (K-562; K-562, Log10 Concentration −5.0 Molar): 8% | Percent Growth (K-562; K-562, Log10 Concentration −6.0 Molar): 87% | Percent Growth (K-562; K-562, Log10 Concentration −7.0 Molar): 100% | Percent Growth (K-562; K-562, Log10 Concentration −8.0 Molar): 114% | GI50 (U251; Homo sapiens, U-251): 2.46 µM | CC50 (U251; Homo sapiens, U-251, read-out: LC50): > 100 µM | TGI (U251; U251): 2.53E−5 Molar | Percent Growth (U251; U251, Log10 Concentration −4.0 Molar): −35% | Percent Growth (U251; U251, Log10 Concentration −5.0 Molar): 25% | Percent Growth (U251; U251, Log10 Concentration −6.0 Molar): 56% | Percent Growth (U251; U251, Log10 Concentration −7.0 Molar): 84% | Percent Growth (U251; U251, Log10 Concentration −8.0 Molar): 93% | IC50 (A549 cells; Homo sapiens, A549, read-out: IC50 (−LogM), A549, Lung (converted)): 10 µM | IC50 (Hct116; Homo sapiens, HCT-116, read-out: IC50 (−LogM), Hct116, Colon (converted)): 3.98 µM | IC50 (AsPC-1; Homo sapiens, ASPC1, read-out: IC50 (−LogM), ASPC1, Pancrease (converted)): 15.8 µM | Percent Growth (CAKI-1; Log10 Concentration −4.0 Molar): 1% | Percent Growth (CAKI-1; Log10 Concentration −5.0 Molar): −47% | Percent Growth (CAKI-1; Log10 Concentration −6.0 Molar): −21% | Percent Growth (CAKI-1; Log10 Concentration −7.0 Molar): −3% | Percent Growth (CAKI-1; Log10 Concentration −8.0 Molar): 1% | GI50 (CAKI-1; Homo sapiens, CAKI-1): < 0.01 µM | CC50 (CAKI-1; Homo sapiens, CAKI-1, read-out: LC50): > 100 µM | TGI (EKVX): 6.47E−5 Molar | GI50 (EKVX; Homo sapiens): 21 µM | CC50 (EKVX; Homo sapiens, read-out: LC50): > 100 µM | Percent Growth (EKVX; Log10 Concentration −4.0 Molar): −22% | Percent Growth (EKVX; Log10 Concentration −5.0 Molar): 94% | Percent Growth (EKVX; Log10 Concentration −6.0 Molar): 107% | Percent Growth (EKVX; Log10 Concentration −7.0 Molar): 105% | Percent Growth (EKVX; Log10 Concentration −8.0 Molar): 103% | IC50 (Ovcar3; Homo sapiens, OVCAR-3): 3.16 µM | IC50 (H1395; Homo sapiens, NCI-H1395, read-out: IC50 (−LogM) (converted)): < 31.6 µM | IC50 (CT116P53; [1]): < 31.6 µM | IC50 (H2009; Homo sapiens, NCI-H2009, read-out: IC50 (−LogM) (converted)): < 31.6 µM | IC50 (H1933; [1]): < 31.6 µM | IC50 (H1299 cells; Homo sapiens, NCI-H1299, read-out: IC50 (−LogM), h1299, Lung (converted)): 15.8 µM | IC50 (A549CK8; [1]): 15.8 µM | TGI (NCI-H522): 1.24E−5 Molar | GI50 (NCI-H522; Homo sapiens, NCI-H522): 2.41 µM | CC50 (NCI-H522; Homo sapiens, NCI-H522, read-out: LC50): 51 µM | Percent Growth (NCI-H522; Log10 Concentration −4.0 Molar): −74% | Percent Growth (NCI-H522; Log10 Concentration −5.0 Molar): 7% | Percent Growth (NCI-H522; Log10 Concentration −6.0 Molar): 76% | Percent Growth (NCI-H522; Log10 Concentration −7.0 Molar): 82% | Percent Growth (NCI-H522; Log10 Concentration −8.0 Molar): 91% | IC50 (Heb44): 0.0631 µM | IC50 (DLD1; Homo sapiens, DLD-1, read-out: IC50 (−LogM) (converted)): < 31.6 µM | IC50 (Heb46): 2 µM | IC50 (H226B cells; Homo sapiens, read-out: IC50 (−LogM), H226B, Lung, first H226B line (converted)): 0.316 µM | IC50 (H226B cells; Homo sapiens, read-out: IC50 (−LogM), H226B, Lung, second H226B line (converted)): 3.98 µM | IC50 (miapac; Homo sapiens, Pancreatic cancer cell, read-out: IC50 (−LogM) (converted)): < 31.6 µM | IC50 (H2122; Homo sapiens, NCI-H2122, read-out: IC50 (−LogM) (converted)): 0.631 µM | GI50 (SK-MEL-2; Homo sapiens, SK-MEL-2): 15.8 µM | CC50 (SK-MEL-2; Homo sapiens, SK-MEL-2, read-out: LC50): 48.2 µM | TGI (SK-MEL-2; SK-MEL-2): 5.94E−8 Molar | Percent Growth (SK-MEL-2; SK-MEL-2, Log10 Concentration −4.0 Molar): −64% | Percent Growth (SK-MEL-2; SK-MEL-2, Log10 Concentration −5.0 Molar): −20% | Percent Growth (SK-MEL-2; SK-MEL-2, Log10 Concentration −6.0 Molar): 67% | Percent Growth (SK-MEL-2; SK-MEL-2, Log10 Concentration −7.0 Molar): 84% | Percent Growth (SK-MEL-2; SK-MEL-2, Log10 Concentration −8.0 Molar): 98% | IC50 (Capanc-1; Homo sapiens, Pancreatic cancer cell, read-out: IC50 (−LogM), capanc1, Pancrease (converted)): 31.6 µM | TGI (LOX IMVI): 1.68E−5 Molar | GI50 (LOX IMVI; Homo sapiens): 0.0448 µM | CC50 (LOX IMVI; Homo sapiens, read-out: LC50): 47.2 µM | Percent Growth (LOX IMVI; Log10 Concentration −4.0 Molar): −86% | Percent Growth (LOX IMVI; Log10 Concentration −5.0 Molar): 25% | Percent Growth (LOX IMVI; Log10 Concentration −6.0 Molar): 96% | Percent Growth (LOX IMVI; Log10 Concentration −7.0 Molar): 95% | Percent Growth (LOX IMVI; Log10 Concentration −8.0 Molar): 102% | GI50 (OVCAR-4; Homo sapiens, OVCAR-4): 0.34 µM | CC50 (OVCAR-4; Homo sapiens, OVCAR-4, read-out: LC50): > 100 µM | TGI (OVCAR-4; OVCAR-4): 1.80E−5 Molar | Percent Growth (OVCAR-4; OVCAR-4, Log10 Concentration −4.0 Molar): −29% | Percent Growth (OVCAR-4; OVCAR-4, Log10 Concentration −5.0 Molar): 10% | Percent Growth (OVCAR-4; OVCAR-4, Log10 Concentration −6.0 Molar): 31% | Percent Growth (OVCAR-4; OVCAR-4, Log10 Concentration −7.0 Molar): 71% | Percent Growth (OVCAR-4; OVCAR-4, Log10 Concentration −8.0 Molar): 94% | IC50 (HKE3; read-out: IC50 (−LogM), HKE3, Colon, first HKE3 line (converted)): 1 µM | IC50 (HKE3; read-out: IC50 (−LogM), HKE3, Colon, second HKE3 line (converted)): 1.26 µM

O=Cc1cn(Cc2ccc(Cl)cc2)c2ccccc12 [Oncrasin K001, 1H-Indole-3-carboxaldehyde, 1-[(4-chlorophenyl)methyl]-(9CI)]
IC50 (−LogM) (H23): >4.5 −LogM | IC50 (−LogM) (A549 cells; A549, Lung): >4.5 −LogM | IC50 (A549 cells; K-Ras G12S, read-out: IC50, A549 cells): 1.58 µM | IC50 (Hct116; G13D mutation in K-Ras, read-out: IC50, HCT116): 3.1 µM | IC50 (−LogM) (Hct116; Hct116, Colon): 5.5 −LogM | IC50 (−LogM) (AsPC-1; ASPC1, Pancrease): 5.5 −LogM | IC50 (AsPC-1; K-Ras G12D mutation, read-out: IC50, AsPC-1): 0.04 µM | IC50 (−LogM) (H322 cells; H322, Lung): 4.5 −LogM | toxicity to H322 cells (H322 cells; at 33 μM (the highest concentration tested), ras wild-type): not toxic | effect on H322 cells (H322 cells; wild-type Ras, listed as Oncrasin-1): minimal effect; also recorded: not effective | IC50 (−LogM) (Ovcar3): 5.6 −LogM | IC50 (−LogM) (H1395; H1395, Lung): >4.5 −LogM | effect on H1395 cells (H1395; wild-type Ras): minimal effect | IC50 (−LogM) (CT116P53; CT116P53, Colon): >4.5 −LogM | IC50 (−LogM) (H2009; H2009, Lung): >4.5 −LogM | IC50 (−LogM) (H1933; H1933, Lung): >4.5 −LogM | IC50 (−LogM) (H1299 cells; h1299, Lung): >4.5 −LogM | effect on H1299 cells (H1299 cells; mutant N-Ras, listed as Oncrasin-1): minimal effect; also recorded: not effective | IC50 (−LogM) (A549CK8; A549CK8, Lung): 5.8 −LogM | IC50 (−LogM) (Heb44): 8 −LogM | IC50 (−LogM) (DLD1; DLD1, Colon): >4.5 −LogM | IC50 (−LogM) (Heb46): 6.1 −LogM | IC50 (−LogM) (SKOV3): 5.8 −LogM | IC50 (−LogM) (H226B cells; first H226B line): 7 −LogM | IC50 (−LogM) (H226B cells; second H226B line): 5.6 −LogM | IC50 (H226B cells; Ras status not known, read-out: IC50, H226B cells): 1.2 µM | effect on H226b cells (H226B cells; ras status unknown): effective | IC50 (−LogM) (miapac; miapac, Pancrease): >4.5 −LogM | IC50 (−LogM) (H2122; H2122, Lung): 6.1 −LogM | IC50 (H2122; K-Ras G12C, read-out: IC50, H2122): 0.79 µM | effect on H212 cells (H2122; lung cancer cell line, G12C): highly effective | IC50 (Capanc-1; K-Ras G12V mutation, read-out: IC50, Capanc-1): 0.42 µM | IC50 (−LogM) (Capanc-1; capanc1, Pancrease): 5 −LogM | IC50 (−LogM) (HKE3; first HKE3 line): 6.4 −LogM | IC50 (−LogM) (HKE3; second HKE3 line): 6 −LogM
